The target in one test is PDE4 (Homo sapiens, UniProt Q08499). The test can be described thus: In-vitro assay for PDE4 enzymes, real-time enzyme-coupled spectrophotometric assay (Table 9). The format is biochemical.
The next test deals with PDE4B (Homo sapiens, UniProt Q07343). The test can be described thus: In-vitro assay for PDE4 enzymes, real-time enzyme-coupled spectrophotometric assay, PDE4B Activity (Table 10). The format is biochemical.
Setting [1] is: human PDE4D, activity class, Table 9, read-out: hPDE4D.
Setting [2] is: human PDE4B (hPDE4B), enzyme-coupled spectrophotometric assay, read-out: PDE4B Activity, hPDE4B.

Each structure is given as a SMILES string. pIC50: −log10 of the molar value. Where a name gives a salt, the structure may show the parent alone. Read-outs that look alike come from different tables or passages of the source. Bounds are passed on as bounds.

PDE4, sequence (Q08499 whole entry): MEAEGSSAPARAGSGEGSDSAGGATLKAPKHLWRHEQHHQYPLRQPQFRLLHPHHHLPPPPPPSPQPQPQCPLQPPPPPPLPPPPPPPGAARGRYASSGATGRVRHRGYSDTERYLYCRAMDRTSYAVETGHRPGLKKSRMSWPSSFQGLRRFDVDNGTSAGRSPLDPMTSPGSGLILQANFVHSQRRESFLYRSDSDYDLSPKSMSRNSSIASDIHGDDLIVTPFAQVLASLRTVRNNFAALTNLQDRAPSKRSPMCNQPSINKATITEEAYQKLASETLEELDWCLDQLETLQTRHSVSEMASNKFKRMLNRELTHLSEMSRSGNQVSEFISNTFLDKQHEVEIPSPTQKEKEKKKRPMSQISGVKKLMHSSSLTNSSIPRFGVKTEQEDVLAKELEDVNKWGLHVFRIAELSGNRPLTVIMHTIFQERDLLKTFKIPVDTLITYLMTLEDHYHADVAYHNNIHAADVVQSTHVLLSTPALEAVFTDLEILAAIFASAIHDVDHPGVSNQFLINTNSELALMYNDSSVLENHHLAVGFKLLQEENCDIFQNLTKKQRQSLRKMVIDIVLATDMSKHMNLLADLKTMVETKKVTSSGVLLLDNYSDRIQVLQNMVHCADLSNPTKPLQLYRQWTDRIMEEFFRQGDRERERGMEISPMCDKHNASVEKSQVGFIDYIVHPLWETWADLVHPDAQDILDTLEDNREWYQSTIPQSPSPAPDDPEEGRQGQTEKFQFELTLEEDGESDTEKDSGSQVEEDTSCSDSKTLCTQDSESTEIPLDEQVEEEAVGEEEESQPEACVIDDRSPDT
PDE4B, sequence (Q07343 whole entry): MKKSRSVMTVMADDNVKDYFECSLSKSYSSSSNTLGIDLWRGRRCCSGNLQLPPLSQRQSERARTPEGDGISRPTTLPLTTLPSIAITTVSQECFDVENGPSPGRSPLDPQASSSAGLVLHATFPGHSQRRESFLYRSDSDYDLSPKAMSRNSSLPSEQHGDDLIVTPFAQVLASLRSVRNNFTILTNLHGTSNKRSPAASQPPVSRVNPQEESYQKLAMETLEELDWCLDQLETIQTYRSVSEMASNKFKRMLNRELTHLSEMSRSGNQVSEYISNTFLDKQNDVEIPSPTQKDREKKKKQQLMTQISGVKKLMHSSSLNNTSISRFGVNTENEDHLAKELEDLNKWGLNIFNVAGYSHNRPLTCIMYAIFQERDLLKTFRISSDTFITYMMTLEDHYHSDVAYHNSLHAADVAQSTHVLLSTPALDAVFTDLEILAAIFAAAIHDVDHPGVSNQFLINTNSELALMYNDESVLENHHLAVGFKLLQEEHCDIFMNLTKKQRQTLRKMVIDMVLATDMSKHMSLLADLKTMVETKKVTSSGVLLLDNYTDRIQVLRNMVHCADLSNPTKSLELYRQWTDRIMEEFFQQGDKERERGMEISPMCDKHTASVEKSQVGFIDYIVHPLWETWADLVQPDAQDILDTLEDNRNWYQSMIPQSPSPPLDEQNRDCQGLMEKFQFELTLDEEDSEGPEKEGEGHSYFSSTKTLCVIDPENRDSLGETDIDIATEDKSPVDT

Regarding `[2H]C(O)(c1ccc(NC(N)=O)cc1)c1ccc(OC)c(-c2cccc(Cl)c2)c1F` (stereo not shown) [P-539, {4-[(3′-chloro-2-fluoro-6-methoxy-biphenyl-3-yl)-hydroxy-deutero-methyl]-phenyl}-urea], the figures for the pIC50 at PDE4 (setting [1]) and at PDE4B (setting [2]) were over 5.30 and 4.40 to 4.68, respectively.

For `COc1ccc(Sc2ccc(NC(N)=O)cc2)cc1-c1cccc(Cl)c1` [P-540, [4-(3′-Chloro-6-methoxy-biphenyl-3-ylsulfanyl)-phenyl]-urea], the pIC50 on PDE4 (setting [1]) and at PDE4B (setting [2]) was over 5.30 throughout.

As for `CCOc1ccc(Cc2ccc(NC(N)=O)cc2)cc1-c1cccc(Cl)c1` [P-541, [4-(3′-Chloro-6-ethoxy-biphenyl-3-ylmethyl)-phenyl]-urea], the pIC50 at PDE4 (setting [1]) and at PDE4B (setting [2]) was over 5.30 throughout.

For the molecule `NCCOc1ccc(Cc2ccc(NC(N)=O)cc2)cc1-c1cccc(Cl)c1` [P-542, {4-[6-(2-Amino-ethoxy)-3′-chloro-biphenyl-3-ylmethyl]-phenyl}-urea], the results for the pIC50 at PDE4 (setting [1]) and at PDE4B (setting [2]) were 4.40 to 4.70 and 4.40 to 4.68, respectively.

Consider `COc1ccc(Cn2cc(-c3cnccn3)cn2)c(F)c1-c1cccc(Cl)c1` [P-545, 2-[1-(3′-Chloro-2-fluoro-6-methoxy-biphenyl-3-ylmethyl)-1H-pyrazol-4-yl]-pyrazine], for which the pIC50 on PDE4 (setting [1]) and at PDE4B (setting [2]) was over 5.30 each time.

Consider `[2H]C([2H])(c1ccc(NC(N)=O)cc1)c1ccc(OC)c(-c2cccc(Cl)c2)c1` [P-547, {4-[Bisduetero-(3′-chloro-6-methoxy-biphenyl-3-yl)-methyl]-phenyl}-urea], for which the pIC50 at PDE4 (setting [1]) and at PDE4B (setting [2]) was over 5.30 each time.

Take `COc1ccc(Cn2ccnc2-c2cccnc2)c(F)c1-c1cccc(Cl)c1` [P-549, 3-[1-(3′-Chloro-2-fluoro-6-methoxy-biphenyl-3-ylmethyl)-1H-imidazol-2-yl]-pyridine hydrochloride salt]: the pIC50 on PDE4 (setting [1]) is over 5.30; at PDE4B (setting [2]) it was 4.70 to 5.30.

As for `COc1c(F)cc(Cc2ccc(NC(N)=O)cc2)cc1-c1cccc(Cl)c1` [P-550, [4-(3′-chloro-5-fluoro-6-methoxy-biphenyl-3-ylmethyl)-phenyl]-urea], the pIC50 at PDE4 (setting [1]) and on PDE4B (setting [2]) was over 5.30 each time.

`NC(=O)Nc1ccc(Cc2ccc(OC3CSC3)c(-c3cccc(Cl)c3)c2)cc1` [P-553, {4-[3′-Chloro-6-(thietan-3-yloxy)-biphenyl-3-ylmethyl]-phenyl}-urea]: the pIC50 on PDE4 (setting [1]) and on PDE4B (setting [2]) was over 5.30 each time.

`NC(=O)Nc1ccc(Cc2ccc(OC3COC3)c(-c3cccc(Cl)c3)c2)cc1` [P-555, {4-[3′-Chloro-6-(oxetan-3-yloxy)-biphenyl-3-ylmethyl]-phenyl}-urea]: the pIC50 on PDE4 (setting [1]) and at PDE4B (setting [2]) was over 5.30 in each case.

In the case of `COc1ccc(Cn2ccnc2-c2cccs2)c(F)c1-c1cccc(Cl)c1` [P-559, 1-(3′-Chloro-2-fluoro-6-methoxy-biphenyl-3-ylmethyl)-2-thiophen-2-yl-1H-imidazole hydrochloride salt], the pIC50 at PDE4 (setting [1]) and at PDE4B (setting [2]) was over 5.30 in each case.

On to `Nc1ccc(Cc2ccc(OC3COC3)c(-c3cccc(Cl)c3)c2)cc1` [P-562, 4-[3′-Chloro-6-(oxetan-3-yloxy)-biphenyl-3-ylmethyl]-phenylamine], for which the pIC50 on PDE4 (setting [1]) and on PDE4B (setting [2]) was over 5.30 throughout.

Take `NC(=O)Nc1ccc(Cc2ccc(OC[C@@H]3CCCN3)c(-c3cccc(Cl)c3)c2)cc1` [P-563, {4-[3′-Chloro-6-((S)-1-pyrrolidin-2-ylmethoxy)-biphenyl-3-ylmethyl]-phenyl}-urea]: the pIC50 at PDE4 (setting [1]) was over 5.30; on PDE4B (setting [2]), 4.70 to 5.30.

As for `COc1ccc(C2(c3ccc(F)cc3)CCN(C)CC2)cc1-c1cccc(Cl)c1` [P-564, 4-(3′-Chloro-6-methoxy-biphenyl-3-yl)-4-(4-fluoro-phenyl)-1-methyl-piperidine], the pIC50 at PDE4 (setting [1]) is 4.70 to 5.30; at PDE4B (setting [2]), 4.40 to 4.68.

As for `CN1CC[C@@H](Oc2ccc(Cc3ccc(NC(N)=O)cc3)cc2-c2cccc(Cl)c2)C1` [P-565, {4-[3′-Chloro-6-((R)-1-methyl-pyrrolidin-3-yloxy)-biphenyl-3-ylmethyl]-phenyl}-urea], the results for the pIC50 on PDE4 (setting [1]) and on PDE4B (setting [2]) were 4.70 to 5.30 and 4.40 to 4.68, respectively.

Take `COc1ccc(Cc2ccc(NC(=O)NC3CCCO3)cc2)cc1-c1cccc(Cl)c1` (stereo not shown) [P-566, 1-[4-(3′-Chloro-6-methoxy-biphenyl-3-ylmethyl)-phenyl]-3-(tetrahydro-furan-2-yl)-urea]: the pIC50 on PDE4 (setting [1]) and at PDE4B (setting [2]) was over 5.30 each time.

Consider `COc1ccc(Cc2ccc(CO)nc2)cc1-c1cccc(Cl)c1` [P-567, [5-(3′-Chloro-6-methoxy-biphenyl-3-ylmethyl)-pyridin-2-yl]-methanol], for which the pIC50 at PDE4 (setting [1]) and on PDE4B (setting [2]) was over 5.30 each time.

Regarding `COc1ccc(Cc2ccc(N3CCC3)nc2)cc1-c1cccc(Cl)c1` [P-568, 2-azetidin-1-yl-5-(3′-chloro-6-methoxy-biphenyl-3-ylmethyl)-pyridine], the pIC50 at PDE4 (setting [1]) and on PDE4B (setting [2]) was over 5.30 throughout.

Regarding `COc1ccc(Cc2ccc(N3CCC3)nc2)c(F)c1-c1cccc(Cl)c1` [P-569, 2-Azetidin-1-yl-5-(3′-chloro-2-fluoro-6-methoxy-biphenyl-3-ylmethyl)-pyridine], the pIC50 at PDE4 (setting [1]) and at PDE4B (setting [2]) was over 5.30 in each case.

On to `CCNC(=O)OCc1ccc(Cc2ccc(OC)c(-c3cccc(Cl)c3)c2)cn1` [P-570, Ethyl-carbamic acid 5-(3′-chloro-6-methoxy-biphenyl-3-ylmethyl)-pyridin-2-ylmethyl ester hydrochloride], for which the pIC50 on PDE4 (setting [1]) and on PDE4B (setting [2]) was over 5.30 throughout.

As to `COc1ccc(Cc2ccc(N3CCC3C(N)=O)nc2)c(F)c1-c1cccc(Cl)c1` (stereo not shown) [P-571, 1-[5-(3′-chloro-2-fluoro-6-methoxy-biphenyl-3-ylmethyl)-pyridin-2-yl]-azetidine-2-carboxylic acid amide], the pIC50 at PDE4 (setting [1]) and at PDE4B (setting [2]) was over 5.30 in each case.

As to `COc1ccc(Cc2ccc(-n3ccnc3)nc2)c(F)c1-c1cccc(Cl)c1` [P-573, 5-(3′-chloro-2-fluoro-6-methoxy-biphenyl-3-ylmethyl)-2-imidazol-1-yl-pyridine], the pIC50 at PDE4 (setting [1]) and on PDE4B (setting [2]) was over 5.30 in each case.

`COc1ccc(COc2ccc([N+](=O)[O-])cc2)c(F)c1-c1cccc(Cl)c1` [P-575]: the pIC50 was 4.70 to 5.30 on PDE4 (setting [1]) and over 5.30 at PDE4B (setting [2]).

For the molecule `COc1ccc(COc2ccc(N)cc2)c(F)c1-c1cccc(Cl)c1` [P-576], the pIC50 on PDE4 (setting [1]) and on PDE4B (setting [2]) was over 5.30 throughout.

`COc1ccc(C(=O)c2ccc(N)cc2)cc1-c1ccc2c(c1)OCCO2` [P-578]: the pIC50 on PDE4 (setting [1]) and on PDE4B (setting [2]) was over 5.30 each time.

Turning to `COc1ccc(C(=O)c2ccc(N)cc2)cc1-c1cccc(F)c1` [P-579], the pIC50 at PDE4 (setting [1]) and at PDE4B (setting [2]) was over 5.30 throughout.

Regarding `COc1ccc(Cc2ccc(N3CCCC3)nc2)c(F)c1-c1cccc(Cl)c1` [P-582, 5-(3′-Chloro-2-fluoro-6-methoxy-biphenyl-3-ylmethyl)-2-pyrrolidin-1-yl-pyridine], the pIC50 at PDE4 (setting [1]) and at PDE4B (setting [2]) was over 5.30 throughout.

In the case of `[2H]C(O)(c1ccc([N+](=O)[O-])cc1)c1ccc(OC)c(-c2cccc(Cl)c2)c1` (stereo not shown) [P-583], the values for the pIC50 at PDE4 (setting [1]) and at PDE4B (setting [2]) were over 5.30 and 4.70 to 5.30, respectively.

As for `COc1ccc(COc2ccc(Cl)nc2)c(F)c1-c1cccc(Cl)c1` [P-585], the pIC50 on PDE4 (setting [1]) and on PDE4B (setting [2]) was over 5.30 throughout.

In the case of `COc1ccc(Cc2ccc(C(C)(C)O)nc2)c(F)c1-c1cccc(Cl)c1` [P-587, 2-[5-(3′-Chloro-2-fluoro-6-methoxy-biphenyl-3-ylmethyl)-pyridin-2-yl]-propan-2-ol hydrochloride], the pIC50 on PDE4 (setting [1]) and at PDE4B (setting [2]) was over 5.30 in each case.

On to `COc1ccc(Cc2ccc(OCCN(C)C)nc2)c(F)c1-c1cccc(Cl)c1` [P-588, {2-[5-(3′-Chloro-2-fluoro-6-methoxy-biphenyl-3-ylmethyl)-pyridin-2-yloxy]-ethyl}-dimethyl-amine], for which the pIC50 at PDE4 (setting [1]) and at PDE4B (setting [2]) was over 5.30 each time.

`COc1ccc(Cc2ccc(C#N)nc2)cc1-c1cccc(Cl)c1` [P-590, 5-(3′-chloro-6-methoxy-biphenyl-3-ylmethyl)-pyridine-2-carbonitrile]: the pIC50 on PDE4 (setting [1]) and at PDE4B (setting [2]) was over 5.30 each time.

In the case of `COc1ccc(Cc2ccc(CN)nc2)cc1-c1cccc(Cl)c1` [P-591, C-[5-(3′-chloro-6-methoxy-biphenyl-3-ylmethyl)-pyridin-2-yl]-methylamine hydrochloride], the pIC50 on PDE4 (setting [1]) and at PDE4B (setting [2]) was over 5.30 each time.

Consider `COc1ccc(Cc2ccc(CNC(=O)Oc3ccccc3)nc2)cc1-c1cccc(Cl)c1` [P-592, [5-(3′-Chloro-6-methoxy-biphenyl-3-ylmethyl)-pyridin-2-ylmethyl]-carbamic acid phenyl ester], for which the pIC50 against PDE4 and at PDE4B was over 5.30 in each case.

In the case of `CNC(=O)NCc1ccc(Cc2ccc(OC)c(-c3cccc(Cl)c3)c2)cn1` [P-593, 1-[5-(3′-chloro-6-methoxy-biphenyl-3-ylmethyl)-pyridin-2-ylmethyl]-3-methyl-urea hydrochloride], the pIC50 at PDE4 (setting [1]) and at PDE4B (setting [2]) was over 5.30 throughout.

In the case of `COc1ccc(COc2ccc(NC(C)=O)cc2)c(F)c1-c1cccc(Cl)c1` [P-594], the pIC50 at PDE4 (setting [1]) and at PDE4B (setting [2]) was over 5.30 throughout.

In the case of `NCc1ccc(Cc2ccc(OC(F)F)c(-c3cccc(Cl)c3)c2)cn1` [P-596, C-[5-(3′-Chloro-6-difluoromethoxy-biphenyl-3-ylmethyl)-pyridin-2-yl]-methylamine], the pIC50 at PDE4 (setting [1]) and on PDE4B (setting [2]) was over 5.30 throughout.

Regarding `CCNC(=O)NCc1ccc(Cc2ccc(OC)c(-c3cccc(Cl)c3)c2)cn1` [P-597, 1-[5-(3′-chloro-6-methoxy-biphenyl-3-ylmethyl)-pyridin-2-ylmethyl]-3-ethyl-urea hydrochloride], the pIC50 on PDE4 (setting [1]) and at PDE4B (setting [2]) was over 5.30 each time.
